Test results: patent US8889950B2, “Repression of AtGLR3.2 increases plant biomass” (The George Washington University, priority 2006, dated 2014)
“Also recorded” adds a separate entry of the source.

Experiments:
DR5::GUS = test: Histochemical GUS assay in auxin responsive reporter DR5::GUS seedlings; type: in vivo, Arabidopsis thaliana
Protocol: DR5::GUS reporter was grown for 10 days and subjected to histochemical GUS staining for 10 hrs. The development of blue color indicates the detection of the presence of auxins that function in the regulation and formation of lateral roots
To assess the role of auxins in the AtGLR response, the effect of DNQX on auxin levels were evaluated. Auxin responsive reporter plants carrying the expression system DR5::GUS were used in the histochemical assays. […] Similar results were reported in phosphate starvation studies (Nacry et al. 2005 Plant Physiol. 138:2061).

[1] = system: L-Glu induced ion channel activity in plants; conditions: Mayerhoff et al. 2005. Planta. 222:418; cited from earlier work
LR primordia = test: Microscopic analysis of LR primordia (LRP) formation and elongation; type: in vivo, Arabidopsis thaliana; conditions: 400 μM DNQX vs DMSO control
Text: B. DMSO control had fully emerged LR and more LRPs Arrows indicate an LRP that is inhibited, (A) or a fully emerged LR, (B).
(§1) The genetic and physiological analyses described above were complemented with pharmacological studies where the functions of AtGLRs were inhibited with iGLR specific inhibitors/antagonists. […] L-Glu is the bioactive ligand for iGLRs. […] Thus the inhibitors of AtGLRs can block LR elongation drastically and specifically. Furthermore DNQX mediated LR elongation inhibition is reversed by L-Glu.

[2] = system: AtGLRs (PR and LR elongation of seedlings); test: Root elongation of seedlings on plates with the iGLR antagonist DNQX; type: in vivo, Arabidopsis thaliana
Protocol: A. Control, B. DNQX treated. Note the lack of LR in DNQX-treated seedlings (b) versus LR in DMSO control. Both plates contained 10 μM KNO3. DNQX is an inhibitor (antagonist) of animal iGLRs and plant GLRs. The lateral root in the DMSO control is indicated by an arrow.
Note glutamate is the natural binding chemical (ligand) to animal iGLRS and puataive ligand for plant GLRs.
The present invention describes the function for AtGLRs in N sensing, absorption (FIG. 3, Forde, B G. 2002. Annu. Rev. Plant Biol. 53:203), assimilation (FIG. 12), plant growth and development (FIG. 11, 13). These claims were validated with pharmacological (FIG. 6-9), physiological (FIG. 10, 11, 13) and immunobot analyses of N assimilatory enzymes (FIG. 12).
as §1

O=c1[nH]c2cc([N+](=O)[O-])c([N+](=O)[O-])cc2[nH]c1=O [DNQX, 6,7 dinitroquinoxaline-2-3-[1H,4H]-dione]
Auxin levels in PR and LR apex/primordia (DR5::GUS expression) (DR5::GUS; 400 μM DNQX, grown 10 days, GUS staining for 10 hrs, vs control plants): higher levels of auxins in PR and LR primordia; also recorded: hyper accumulation of auxins | LR and PR elongation of DR5::GUS seedlings (DR5::GUS; incubated with 400 μM DNQX): inhibition of LR and PR elongation | L-Glu induced ion channel activity in plants [1]: block L-Glu induced ion channel activity | Further elongation of LR primordia (LR primordia): further elongation of primordia is inhibited; also recorded: inhibits number of LRP formed and their elongation | Number of LRP formed (LR primordia initiation) (LR primordia): reduced the number of LR primordia initiation; also recorded: inhibits number of LRP formed | PR and LR growth and elongation ([2]; DNQX at 400 μM, DMSO control, plates with 10 μM KNO3): inhibit PR and LR elongation; also recorded: inhibit LR growth and elongation | Reversal of DNQX mediated inhibition by coincubation with L-Glu ([2]; coincubation with 10 mM L-glutamate): restored to normal growth; also recorded: can be reversed | Reversibility of DNQX mediated PR and LR inhibition ([2]; seedlings transferred to a media without DNQX): restored to normal growth; also recorded: reversibly and temporarily
